Measured values taken from ChEMBL document CHEMBL1137065, “Identification of peptidomimetic HTLV-I protease inhibitors containing hydroxymethylcarbonyl (HMC) isostere as the transition-state mimic” (Bioorg Med Chem Lett, 2004).
Starred links: 1 amine or outer side, 2 acyl side, 3 side chain; linkers in the order of their positions; H or OH if unused. Non-standard residues stand in square brackets, D forms with d. Residues, ends and D or L forms follow the SMILES beside them. X1 = O=C(C(O)[C@H](Cc1ccccc1)N[*:1])[*:2]; X2 = CC(C)C[C@H](N[*:1])C(O)C(=O)[*:2]; Thz(5,5-Me2) = CC1(C)SCN[C@@H]1C(=O)O

Legend:
[1] = biological target: T1, Gag-Pro polyprotein (Human T-cell leukemia virus 1 (strain Japan ATK-1 subtype A) (HTLV-1)) (UniProt P10274); experiment: Percent inhibition of synthesized human T-cell leukemia virus type I (HTLV-1) protease was determined at 100 uM concentration; details: human T-cell leukemia virus type 1
T1 sequence (whole entry): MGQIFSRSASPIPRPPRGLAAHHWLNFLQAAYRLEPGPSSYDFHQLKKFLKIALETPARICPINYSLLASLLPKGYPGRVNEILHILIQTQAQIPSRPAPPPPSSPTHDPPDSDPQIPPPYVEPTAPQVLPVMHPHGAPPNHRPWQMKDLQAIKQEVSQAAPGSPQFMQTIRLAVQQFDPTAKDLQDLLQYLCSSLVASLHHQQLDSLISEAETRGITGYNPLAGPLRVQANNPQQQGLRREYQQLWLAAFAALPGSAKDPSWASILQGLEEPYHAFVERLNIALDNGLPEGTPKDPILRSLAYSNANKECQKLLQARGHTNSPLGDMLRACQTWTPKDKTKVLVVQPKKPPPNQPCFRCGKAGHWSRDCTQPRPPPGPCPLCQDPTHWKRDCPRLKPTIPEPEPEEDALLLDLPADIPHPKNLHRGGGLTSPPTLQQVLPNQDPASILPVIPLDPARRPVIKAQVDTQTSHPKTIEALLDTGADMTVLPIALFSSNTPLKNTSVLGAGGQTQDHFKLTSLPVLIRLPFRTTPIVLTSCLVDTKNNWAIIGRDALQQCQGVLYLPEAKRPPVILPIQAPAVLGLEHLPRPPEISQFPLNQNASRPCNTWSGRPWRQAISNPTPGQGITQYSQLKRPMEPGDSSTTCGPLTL

[2] = biological target: T1, Gag-Pro polyprotein (Human T-cell leukemia virus 1 (strain Japan ATK-1 subtype A) (HTLV-1)); experiment: Percent inhibition of recombinant human T-cell leukemia virus type I (HTLV-1) protease was determined at 100 uM concentration; details: human T-cell leukemia virus type 1
[3] = biological target: Human immunodeficiency virus type 1 protease (Human immunodeficiency virus 1) (UniProt Q72874); experiment: Percent inhibition of human immunodeficiency virus type I (HIV-1) protease was determined at 50 uM concentration
[4] = biological target: T1, Gag-Pro polyprotein (Human T-cell leukemia virus 1 (strain Japan ATK-1 subtype A) (HTLV-1)); experiment: Percent inhibition of synthesized human T-cell leukemia virus type I (HTLV-1) protease was determined at 50 uM concentration; details: Human T-cell lymphotrophic virus type 1 (strain ATK)
[5] = biological target: T1, Gag-Pro polyprotein (Human T-cell leukemia virus 1 (strain Japan ATK-1 subtype A) (HTLV-1)); experiment: Percent inhibition of recombinant human T-cell leukemia virus type I (HTLV-1) protease was determined at 50 uM concentration; details: Human T-cell lymphotrophic virus type 1 (strain ATK)
Gag-Pro polyprotein [6] = biological target: T2, Gag-Pro polyprotein (Human T-cell leukemia virus 1 (strain Japan ATK-1 subtype A) (HTLV-1), UniProt P10274); experiment: Inhibitory binding affinity towards recombinant human T-cell leukemia virus type I (HTLV-1) protease; parameters: species or system human T-cell leukemia virus type 1
T2 sequence (P10274 whole entry): T1 sequence (whole entry)

Gag-Pro polyprotein [7] = biological target: T2, Gag-Pro polyprotein; experiment: Inhibitory binding affinity towards synthesized human T-cell leukemia virus type I (HTLV-1) protease; parameters: species or system human T-cell leukemia virus type 1

CC(C)c1nc(CN(C)C(=O)N[C@H](C(=O)N[C@@H](Cc2ccccc2)C[C@H](O)[C@H](Cc2ccccc2)NC(=O)OCc2cncs2)C(C)C)cs1
inhibition [1]: 20%
inhibition [2]: 20%
inhibition [3]: 100%

Cc1c(O)cccc1C(=O)NC(Cc1ccccc1)C(O)C(=O)N1CSC(C)(C)C1C(=O)NC(C)(C)C (stereo not drawn)
inhibition [1]: 57%
inhibition [2]: 38%
inhibition [3]: 88%

Cc1cccc(C)c1OCC(=O)NC(Cc1ccccc1)C(O)C(=O)N1CSC(C)(C)C1C(=O)NC(C)(C)C (stereo not drawn)
inhibition [1]: 32%
inhibition [2]: 43%
inhibition [3]: 96%

Cc1ccccc1CNC(=O)C1N(C(=O)C(O)C(Cc2ccccc2)NC(=O)COc2c(C)cccc2C)CSC1(C)C (stereo not drawn)
inhibition [1]: 11%
inhibition [2]: 19%
inhibition [3]: 98%

Cc1ccccc1CNC(=O)C1N(C(=O)C(O)C(Cc2ccccc2)NC(=O)c2cccc(O)c2C)CSC1(C)C (stereo not drawn)
inhibition [1]: 79%
inhibition [2]: 31%
inhibition [3]: 96%

CSCC[C@H](NC(=O)[C@@H](NC(=O)[C@@H]1CCCN1C(=O)C(O)[C@H](Cc1ccccc1)NC(=O)[C@@H](NC(=O)[C@H](CCC(N)=O)NC(=O)[C@@H]1CCCN1)C(C)C)C(C)C)C(=O)N[C@@H](Cc1c[nH]cn1)C(=O)O (stereo partly drawn) (H-PQV[X1]PVMH-OH)
inhibition [4]: 59%
inhibition [2]: 94%
inhibition [3]: 6%
inhibition [5]: 54%

CSCC[C@H](NC(=O)[C@@H](NC(=O)[C@H]1N(C(=O)C(O)[C@H](Cc2ccccc2)NC(=O)[C@@H](NC(=O)[C@H](CCC(N)=O)NC(=O)[C@@H]2CCCN2)C(C)C)CSC1(C)C)C(C)C)C(=O)N[C@@H](Cc1cnc[nH]1)C(=O)O (stereo partly drawn) (H-PQV[X1][Thz(5,5-Me2)]VMH-OH)
Ki (Gag-Pro polyprotein [6]): 3.9 µM
Ki (Gag-Pro polyprotein [7]): 2 µM

CSCC[C@H](NC(=O)[C@@H](NC(=O)[C@H]1N(C(=O)C(O)[C@H](Cc2ccccc2)NC(=O)[C@@H](NC(=O)[C@H](CCC(N)=O)NC(=O)[C@@H]2CCCN2)C(C)C)CSC1(C)C)C(C)C)C(=O)N[C@@H](Cc1c[nH]cn1)C(=O)O (stereo partly drawn) (H-PQV[X1][Thz(5,5-Me2)]VMH-OH)
inhibition [4]: 80%
inhibition [2]: 100%
inhibition [3]: 58%
inhibition [5]: 66%

CSCC[C@H](NC(=O)[C@@H](NC(=O)[C@@H]1CCCN1C(=O)C(O)[C@H](CC(C)C)NC(=O)[C@@H](NC(=O)[C@H](CCC(N)=O)NC(=O)[C@@H]1CCCN1)C(C)C)C(C)C)C(=O)N[C@@H](Cc1c[nH]cn1)C(=O)O (stereo partly drawn) (H-PQV[X2]PVMH-OH)
inhibition [4]: 58%
inhibition [2]: 93%
inhibition [3]: 3%
inhibition [5]: 43%

CSCC[C@H](NC(=O)[C@@H](NC(=O)[C@H]1N(C(=O)C(O)[C@H](CC(C)C)NC(=O)[C@@H](NC(=O)[C@H](CCC(N)=O)NC(=O)[C@@H]2CCCN2)C(C)C)CSC1(C)C)C(C)C)C(=O)N[C@@H](Cc1c[nH]cn1)C(=O)O (stereo partly drawn) (H-PQV[X2][Thz(5,5-Me2)]VMH-OH)
inhibition [4]: 76%
inhibition [2]: 100%
inhibition [3]: 37%
inhibition [5]: 63%

CC(C)CC(=O)N[C@H](C(=O)N[C@H](C(=O)N[C@@H](CC(C)C)[C@@H](O)CC(=O)N[C@@H](C)C(=O)N[C@@H](CC(C)C)[C@@H](O)CC(=O)O)C(C)C)C(C)C [PEPSTATIN]
Ki (Gag-Pro polyprotein [6]): 14.6 µM
inhibition [4]: 15%
Ki (Gag-Pro polyprotein [7]): 36.5 µM
inhibition [3]: 23%
inhibition [5]: 17%
